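Results reflect a 48-hour exposure of cells in 96-well plates to compound at five concentrations. GI50 marks 50% less growth.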 Calls of active or inactive are those of the source. Rule as the data show it: active = GI50 up to about 1.1 µM and inactive = higher. Square brackets hold non-standard residues; d marks the D form. Peptide text beside a SMILES is read from it. 2Nal = N[CH](Cc1ccc2ccccc2c1)C(=O)O
Experiments:
Assay in all cases: inhibition of tumour cell growth, NCI panel, 48 h
CCRF-CEM = test system: CCRF-CEM
M14 = test system: M14
NCI-H522 = test system: NCI-H522
SNB-75 = test system: SNB-75
HOP-92 = test system: HOP-92
Malme-3M = test system: Malme-3M
SR = test system: SR
HCT-116 = test system: HCT-116
RPMI-8226 = test system: RPMI-8226
SNB-19 = test system: SNB-19
A549 = test system: A549
M19-MEL = test system: M19-MEL
SW-620 = test system: SW-620
EKVX = test system: EKVX
RXF 393 = test system: RXF 393
MDA-MB-231 = test system: MDA-MB-231
T47D = test system: T47D
Hs-578T = test system: Hs-578T
DU-145 = test system: DU-145
PC-3 = test system: PC-3

Structure (SMILES)	GI50 (CCRF-CEM)	GI50 (M14)	GI50 (NCI-H522)	GI50 (SNB-75)	GI50 (HOP-92)	GI50 (Malme-3M)	GI50 (SR)	GI50 (HCT-116)	GI50 (RPMI-8226)	GI50 (SNB-19)	GI50 (A549)	GI50 (M19-MEL)	GI50 (SW-620)	GI50 (EKVX)	GI50 (RXF 393)	GI50 (MDA-MB-231)	GI50 (T47D)	GI50 (Hs-578T)	GI50 (DU-145)	GI50 (PC-3)
CCOc1ccc(NCC(=O)N2CC(=O)Nc3ccccc32)cc1	> 100 µM (inactive)	> 100 µM (inactive)	> 100 µM (inactive)	> 100 µM (inactive)	> 100 µM (inactive)	> 100 µM (inactive)	> 100 µM (inactive)	> 100 µM (inactive)	> 100 µM (inactive)	> 100 µM (inactive)	> 100 µM (inactive)	> 100 µM (inactive)	> 100 µM (inactive)	> 100 µM (inactive)	> 100 µM (inactive)					
NCCNc1ccc(NCCN)c2c1C(=O)c1c(O)ccc(O)c1C2=O	0.00791 µM (active)	0.0149 µM (active)	0.0324 µM (active)	0.0162 µM (active)	0.00686 µM (active)	0.0671 µM (active)	< 0.001 µM (active)	0.051 µM (active)	0.0106 µM (active)	0.00944 µM (active)	0.00392 µM (active)	0.0197 µM (active)	0.0246 µM (active)	0.436 µM (active)	0.0719 µM (active)	0.681 µM (active)	0.229 µM (active)	0.148 µM (active)	0.109 µM (active)	0.205 µM (active)
Cc1cc(NS(=O)(=O)c2ccc(NC(=O)COC(=O)c3cccc4c(=O)c5ccccc5[nH]c34)cc2)no1	> 100 µM (inactive)	> 100 µM (inactive)	> 100 µM (inactive)	> 100 µM (inactive)	> 100 µM (inactive)	> 100 µM (inactive)	> 100 µM (inactive)	> 100 µM (inactive)	> 100 µM (inactive)	> 100 µM (inactive)	> 100 µM (inactive)	> 100 µM (inactive)	> 100 µM (inactive)	> 100 µM (inactive)	> 100 µM (inactive)					
CC(=O)OC1CC2OC(Cc3ccccc32)O1 (stereo not drawn)	56.1 µM (inactive)	79.1 µM (inactive)	> 100 µM (inactive)	65 µM (inactive)	34 µM (inactive)	27.6 µM (inactive)	> 100 µM (inactive)	> 100 µM (inactive)	> 100 µM (inactive)	> 100 µM (inactive)	> 100 µM (inactive)	60.4 µM (inactive)	> 100 µM (inactive)	> 100 µM (inactive)	> 100 µM (inactive)					
Cc1nc2ccc(NCCN(C)C)c3c(=O)c4cc(O)ccc4n1c23	0.0962 µM (active)	2.67 µM (inactive)	0.112 µM (active)	0.418 µM (active)	1.12 µM (active)	1.19 µM (inactive)	< 0.01 µM (active)	0.0873 µM (active)	1.19 µM (inactive)	0.281 µM (active)	0.0933 µM (active)	1.54 µM (inactive)	0.122 µM (active)			2.56 µM (inactive)	1.21 µM (inactive)	0.508 µM (active)	1.46 µM (inactive)	0.653 µM (active)
COc1cc2c(c(OC)c1OC)-c1ccc(SC)c(=O)cc1[C@@H](NCc1ccc(C#N)cc1)CC2	0.00414 µM (active)	0.00326 µM (active)	0.00278 µM (active)	0.00307 µM (active)	0.0307 µM (active)	0.00564 µM (active)	0.002 µM (active)	0.00387 µM (active)	0.00315 µM (active)	0.0488 µM (active)	0.00411 µM (active)	0.00361 µM (active)	0.00366 µM (active)	0.00726 µM (active)	0.00185 µM (active)					
CC(C)C(NC(=O)C(CCCCN)NC(=O)C(Cc1c[nH]c2ccccc12)NC(=O)C(Cc1ccc(O)cc1)NC(=O)C(CS)NC(=O)C(N)Cc1ccc2ccccc2c1)C(=O)NC(CS)C(=O)NC(C(N)=O)C(C)O (stereo not drawn) (H-[2Nal]CYWKVCT-NH2; configuration not given here)	> 12.5 µM (inactive)	> 12.5 µM (inactive)	> 12.5 µM (inactive)	> 100 µM (inactive)	< 0.01 µM (active)	> 12.5 µM (inactive)	> 12.5 µM (inactive)	> 12.5 µM (inactive)	> 12.5 µM (inactive)	> 100 µM (inactive)	> 12.5 µM (inactive)	> 100 µM (inactive)	> 12.5 µM (inactive)	> 12.5 µM (inactive)	> 12.5 µM (inactive)	> 12.5 µM (inactive)	> 12.5 µM (inactive)	> 12.5 µM (inactive)	> 12.5 µM (inactive)	> 12.5 µM (inactive)

— ChEMBL document CHEMBL1201862, “PubChem BioAssay data set” (2004)
